Reference: patent publication US7560474B2, “Derivatives of pyridilethanol (phenylethyl) amines as inhibitors of cholesterol biosynthesis, process for their preparation and pharmaceutical compositions containing them” (Lek Pharmaceuticals d.d., priority 2002, dated 2009)
“Also recorded” adds a separate entry of the source. Structures can show the parent of a compound that is named as a salt.

Legend:
[1] = tested on: cholesterol biosynthesis in immortal human hepatocyte cell line HepG2; experiment: Metabolic labeling of immortal human hepatocytes (HepG2) with [3H] acetate, HPLC sterol analysis; type: cell-based; settings: 100 μM inhibitor, HepG2 cells, [3H] acetate labeling, radiodetector HPLC; for quantity of radiolabelled cholesterol synthesized (inhibition of cholesterol biosynthesis): FIG. 3
Method: In accordance with the invention goal, the effect of the novel derivatives of pyridylethanol (phenylethyl) amine as ligands of sigma receptors on inhibition of cholesterol biosynthesis was assessed. An ex vivo method of metabolic labeling of immortal human hepatocytes was employed. The radioactively labelled early precursor of cholesterol [^3H] acetate was added to cells with or without addition of sigma ligands. Two independent experiments of metabolic labeling and sterol analysis were performed. […] The inhibitory effect on cholesterol biosynthesis of our novel ligands of sigma receptors BK-31.2 HBr, BK-33.2HBr, BK-35.2HBr and BK-38.2HBr), prepared according to examples 1 to 4, was evaluated. An ex vivo method of metabolic labeling of immortal human hepatocytes was applied. The radiolabel led precursor of cholesterol biosynthesis [^3H] acetate was added to the cells with or without the addition of sigma ligands. Finally, two independent experiments of metabolic labeling and sterol analysis were performed for each compound. The immortal human hepatocyte cell line HepG2 was split to the 75 cm^2 flasks in the ratio 1:2, two flasks for each condition. The cells were cultured in the DMEM culture ([…] 0.0626 […] 0.042 […]-thryptophan 0.016 g/l, L-[…]Na.2H2O 0.10379 […], choline chloride 0.004 g/l, folic acid 0.004 g/l, myo-inositol 0.0072 g/l, niacinamide 0.004 g/l, D-pantothenic acid 0.004 g/l, pyridoxal.HCl 0.004 g/l, riboflavin 0.0004 g/l, thiamine.HCl 0.004 g/l, calcium chloride.2H2O 0.265 g/l, ferric nitrate.9H2O 0.0001 g/l, magnesium sulfate [anhydride] 0.09767 g/l, potassium chloride 0.4 g/l, sodium chloride 6.4 g/l, monobasic sodium phosphate [anhydride] 0.109 g/l, glucose 4.5 g/l and phenol red, Na 0.0159 g/l) with 5% bovine serum and 1% L-glutamine. After 24 hours a medium with 100 μM ligands of sigma receptors (BK-31.2HBr, BK-33.2HBr, BK-35.2HBr and BK-38.2HBr) was added to the cells. The known inhibitors of cholesterol biosynthesis, 100 μM lovastatin or pravastatin, both the inhibitors of HMG-CoA reductase, and 100 μM fluconazole that inhibits enzymes of the P450 family to which lanosterol 14α-[…] (CYP51) also belongs, were used as positive controls. The cells grown in normal media without the addition of inhibitors served as negative control. The medium was exchanged after 24 hours. After 48 hours, 40 μCi [^3H] acetate was added per 1 ml of the medium (400 μCi per flask). The medium was aspirated after 24 hours, and the cells were tryptinized with 2 ml of trypsine. The cells were collected in 4 ml of the medium, centrifuged, and the cell pellet resuspended in distilled water (1 ml per flask). The cells were homogenized by freeze-thawing. Sterols were extracted from the homogenate. Protein concentration was determined in the homogenate with the Bio-rad reagent according to the recommended protocol of the producer. The homogenate was transferred into glass vials with an inert cover. 3 ml of the extraction solution (75% n-heptane:25% isopropanol (vol/vol)) was added. The closed vials were shaken vigorously on a shaker in the dark room for 2 hours. […] Until analysis, the samples were stored in the HPLC-grade solvent in dark and cold. The dried extracts were dissolved in 250 μl n-heptane. 100 μl aliquots were injected into the normal phase column (ChromSpher Si, 150 mm×3 mm, particle size 5 μm) with the mobile phase 99.5% n-heptane:0.5% isopropanol at flow rate 1 ml/min and room temperature. […] For determination of sterol after metabolic labeling, a radiodetector with the flow-through cell was used. […] G. Byskov, Rikhospitalitet, University of Copenhagen). The results were normalized according to the quantity of internal standard ergosterol and the concentration of proteins in the homogenate. The results represent the average value of two measurements with appropriate standard deviation.

| SMILES | quantity of radiolabelled cholesterol synthesized (inhibition of cholesterol biosynthesis) [1] | other results |
| --- | --- | --- |
| CCCN(CCc1ccccc1)CC(O)c1cccnc1 (stereo not drawn) (as salt: hydrobromid) [BK-31.2HBr, 1-(3-pyridyl)-2-(N-(2-phenylethyl)-N-propylamino)ethanol dihydrobromide] | – | melting point: 113 to 120 °C |
| CCCN(CCc1ccccc1)CC(O)c1cccnc1 (stereo not drawn) [BK-31.2HBr, 1-(3-pyridyl)-2-(N-(2-phenylethyl)-N-propylamino)ethanol dihydrobromide] | significantly lowered amounts of cholesterol | – |
| CN(CCc1ccc(Cl)c(Cl)c1)CC(O)c1cccnc1 (stereo not drawn) [BK-33.2HBr, 1-(3-pyridyl)-2-(N-(2-(3,4-dichlorophenyl)ethyl)-N-methylamino)ethanol dihydrobromide] | significantly lowered amounts of cholesterol | – |
| CCCN(CCc1ccc(Cl)c(Cl)c1)CC(O)c1cccnc1 (stereo not drawn) [BK-35.2HBr, 1-(3-pyridyl)-2-(N-(2-(3,4-dichlorophenyl)ethyl)-N-propylamino)ethanol dihydrobromide] | – | quantity of radiolabelled cholesterol synthesized (inhibition of cholesterol biosynthesis) ([1]; dihydrobromide): most pronounced; also recorded: cholesterol quantity is diminished; also recorded: significantly lowered amounts of cholesterol; also recorded: greatest lowering of cholesterol; quantity of radiolabelled cholesterol synthesized (inhibition of cholesterol biosynthesis) ([1]; listed as BK 35.2HBr, dihydrobromide): highest potential to inhibit cholesterol biosynthesis; amount of intermediate sterols representing lanosterol or T-MAS (accumulation of early postsqualene intermediates) ([1]; FIG. 4, dihydrobromide): ten-fold increase; also recorded: increased |
| CN(CCc1ccc(Cl)c(Cl)c1)CC(O)c1ccncc1 (stereo not drawn) [BK-38.2HBr, 1-(4-pyridyl)-2-(N-(2-(3,4-dichlorophenyl)ethyl)-N-methylamino)ethanol dihydrobromide] | significantly lowered amounts of cholesterol | – |
| OC(Cn1cncn1)(Cn1cncn1)c1ccc(F)cc1F [Fluconazole, fluconazole, reference compound] | weaker inhibitor of cholesterol biosynthesis | – |
| CC[C@H](C)C(=O)O[C@H]1C[C@@H](C)C=C2C=C[C@H](C)[C@H](CC[C@@H]3C[C@@H](O)CC(=O)O3)[C@H]21 [Lovastatin, lovastatin, reference compound] | completely blocked the biosynthesis | – |
